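A five-concentration, 48-hour dose response in 96-well plates underlies each endpoint, interpolated linearly between surrounding concentrations. Definition used: TGI = concentration required for complete inhibition of growth.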
Key:
Assay in all cases: NCI anticancer screen, dose series, 48 h
[1] = tested on: TK-10 renal
[2] = tested on: RXF 393 renal
[3] = tested on: MOLT-4 leukemia
[4] = tested on: M14 melanoma
[5] = tested on: CCRF-CEM leukemia
[6] = tested on: SW-620 colon
[7] = tested on: MALME-3M melanoma
[8] = tested on: HT29 colon
[9] = tested on: MDA-MB-435
[10] = tested on: ACHN renal
[11] = tested on: MDA-MB-231 breast
[12] = tested on: HCT-15 colon
[13] = tested on: NCI-H522 lung
[14] = tested on: U251 CNS
[15] = tested on: SF-295 CNS
[16] = tested on: SNB-75 CNS
[17] = tested on: SF-539 CNS

| SMILES | TGI [1] | TGI [2] | TGI [3] | TGI [4] | TGI [5] | TGI [6] | TGI [7] | TGI [8] | TGI [9] | TGI [10] | TGI [11] | TGI [12] | TGI [13] | TGI [14] | TGI [15] | TGI [16] | TGI [17] |
| --- | --- | --- | --- | --- | --- | --- | --- | --- | --- | --- | --- | --- | --- | --- | --- | --- | --- |
| Cc1ccnc2[nH]c(-c3ccc(F)cc3)cc(=O)c12 | > 100 µM | > 100 µM | > 100 µM | > 46.4 µM | > 100 µM | > 100 µM | > 100 µM | > 100 µM | > 44.8 µM | > 100 µM | > 100 µM | > 100 µM | > 66.8 µM | > 100 µM | > 100 µM | > 100 µM | > 100 µM |
| Clc1ccc(OCc2nnc3sc(-c4ccc(-c5ccc(Cl)cc5Cl)o4)nn23)cc1 | > 100 µM | 54 µM | > 100 µM | > 100 µM | > 100 µM | > 100 µM | > 100 µM | > 100 µM | > 100 µM | > 100 µM | > 100 µM | > 100 µM | > 100 µM | > 100 µM | > 100 µM | 31.3 µM |  |
| NC(=O)SCCC(N)C(=O)O (configuration not stated) | > 100 µM | > 100 µM | > 100 µM | > 100 µM | > 100 µM | > 100 µM | > 100 µM | > 100 µM | > 100 µM | > 100 µM | > 100 µM | > 100 µM | > 100 µM | > 100 µM | > 100 µM | > 100 µM | > 100 µM |
| CCN(CCCl)c1cc(CN(C)C)cc(NC(=O)C23CCC(C(=O)Nc4cc(CN(C)C)cc(N(CC)CCCl)c4)(CC2)CC3)c1 | 21.2 µM | 3.18 µM | 0.503 µM | 14.8 µM | 1.17 µM | 1.65 µM | 3.21 µM | 1.95 µM | 3.08 µM | 9.22 µM | 26.6 µM | 26.4 µM | 1.47 µM | 11 µM | 11.9 µM | 8.33 µM | 2.15 µM |
| O=C(O)[C@H](Cc1ccccc1)NCCN1CCC[C@H]1C(=O)O |  | > 100 µM | > 100 µM | > 100 µM |  | > 100 µM | > 100 µM | > 100 µM | > 100 µM |  | > 100 µM | > 100 µM | > 100 µM | > 100 µM | > 100 µM |  | > 100 µM |
| O=S(=O)(SC1=NCCN1)c1cccc2ccccc12 |  | 71.8 µM | 95.9 µM | > 100 µM | > 100 µM | > 100 µM | > 100 µM | > 100 µM | > 100 µM | 70.5 µM | 45.6 µM | > 100 µM | 36.2 µM | > 100 µM | 51.2 µM | 46 µM | 49.6 µM |
| COC1(OC)C=CC2C1C1C=CC2C1(OC)OC (configuration not stated) | > 100 µM | > 100 µM | > 100 µM | > 100 µM | > 100 µM | > 100 µM | > 100 µM | > 100 µM | > 100 µM | > 100 µM | > 100 µM | > 100 µM | > 100 µM | > 100 µM | > 100 µM | > 100 µM | > 100 µM |
| O=c1cc(N=Nc2ccc(Cl)c(Cl)c2)[nH]c(=O)[nH]1 | 3.18 µM | 3.17 µM | 6.48 µM | 4.08 µM | 0.495 µM | 3.26 µM | 4.53 µM | 3.13 µM | 17.6 µM | 2.98 µM | 3.38 µM | 3.31 µM | 2.81 µM | 3.65 µM | 32.5 µM | 22.5 µM | 8.04 µM |
| COc1cc(/C=C\c2nnc(/C=C\c3ccc(O)c(OC)c3)s2)ccc1O | > 51.2 µM | 4.75 µM | 10.7 µM | 9.58 µM | 14.5 µM | > 23.7 µM | 24 µM | 23.4 µM | 0.549 µM | 22.3 µM | > 57.5 µM | 18.1 µM | 5.57 µM | 17.1 µM | 13.5 µM | 8.83 µM | > 26.4 µM |
| CC(C)C[C@H](NC(=O)[C@H](Cc1ccc(F)cc1)NC(=O)c1ccccn1)B(O)O | 0.0193 µM | < 0.01 µM | > 100 µM | < 0.0107 µM | > 100 µM | < 0.01 µM | < 0.01 µM | < 0.01 µM | < 0.01 µM | 0.0465 µM | < 0.01 µM | < 0.01 µM | < 0.01 µM | 0.106 µM | < 0.01 µM | < 0.01 µM | < 0.01 µM |
| C[N+](C)(C)c1cc2c(nn1)Nc1ccccc1S2 | > 100 µM | > 100 µM | 44.2 µM | 40 µM | 41 µM | > 100 µM | 70 µM | 42.5 µM | 51.9 µM | 69.6 µM | 67 µM | > 100 µM | 52.8 µM | 63.9 µM | 49.7 µM |  |  |
| COc1ccc(C2=C(N)c3ncccc3C2=O)cc1 | > 10 µM | > 100 µM | > 100 µM | > 100 µM | > 100 µM | > 100 µM | > 100 µM | > 100 µM | > 100 µM | > 10 µM | > 100 µM | > 100 µM |  | > 100 µM | > 100 µM | > 100 µM | > 100 µM |
| O/N=C1/CC2(N3CCOCC3)C3CC/C(=N\O)C2CC1(Cc1ccccc1)C3 (configuration not stated) |  | > 100 µM | > 100 µM | > 100 µM | > 100 µM | > 100 µM | > 100 µM | > 100 µM | > 100 µM | > 100 µM | > 100 µM | > 100 µM | > 100 µM | > 100 µM | > 100 µM | 96 µM | > 100 µM |
| ONC1=Nc2ccccc2C(=S)N2CSCC12 (configuration not stated) | > 100 µM | > 100 µM | > 100 µM | > 100 µM | > 100 µM | > 100 µM | > 100 µM | > 100 µM | 48.1 µM | > 100 µM | > 100 µM | > 100 µM | > 100 µM | > 100 µM | > 100 µM | > 100 µM |  |

— PubChem BioAssay (NCI)
